Measurements taken from paper PMC7504735, “Enhanced Antigiardial Effect of Omeprazole Analog Benzimidazole Compounds” (Molecules, 2020).

Assays:
in vitro = format: cell-based; settings: human, Caco-2; for CC50 at 48 h: XTT; for selectivity ratio at 48 h: ratio of CC50/IC50 between mammal cells and trophozoites, read-out: Selectivity index (SI), CC50 Caco-2 / IC50 trophozoites; for viability at 48 h, 500 µM: read-out: Viability of Caco-2 cells (lowered to)
Experimental: (§1) The cytotoxicity of compounds was investigated on human cell lines Caco-2 (ATCC HTB-37) and HT-29 (ATCC HHTB-38), using a Cell Proliferation Kit II (XTT; St Louis, MO, USA) according to the manufacturer’s instructions. A cell suspension of 10^5 cells/mL was prepared in Dulbecco’s modified Eagle’s (DMEM); medium supplemented with 10% inactivated fetal bovine serum and 1% Penicillin/streptomycin (5000 U/mL), from confluent cultures, and […] portions of the suspension were added to the wells of 96-well plates. […] Solutions of the compound were prepared and sterilized as described in Section 3.4.1 of Materials and Methods. Then, 150 μL of two-fold serial dilutions of each of the compounds, starting at a concentration of 500 µM, in a culture medium at a concentration of 0.3% DMSO, were prepared in the plates. […] Each compound was assayed in triplicate via three independent experiments.

Caco-2 cells = test: in vitro; format: cell-based
Experimental: as §1

[1] = In vitro cytotoxicity, XTT assay, HT29; format: cell-based, human; settings: human, HT-29 cells; for CC50 at 48 h: XTT; for viability at 48 h, 500 µM: read-out: Viability of HT-29 cells (lowered to)
Experimental: as §1

HT29 cells = test: In vitro cytotoxicity, XTT assay, HT29; format: cell-based, human; settings: for Selectivity index (SI), CC50 HT29 / IC50 trophozoites: ratio of CC50/IC50 between mammal cells and trophozoites
Experimental: as §1

[2] = molecular target: T1, triosephosphate isomerase (TPI) (Giardia intestinalis, UniProt P36186); test: Inactivation of recombinant TPI enzyme with compounds; format: biochemical; settings: for Loss (reduction) of TPI enzyme activity: 500 µM compound, 2 h at 37 °C
T1 construct: His-tag (TEV-cleavable) (cleaved yes); made in house
T1 sequence (P36186 whole entry): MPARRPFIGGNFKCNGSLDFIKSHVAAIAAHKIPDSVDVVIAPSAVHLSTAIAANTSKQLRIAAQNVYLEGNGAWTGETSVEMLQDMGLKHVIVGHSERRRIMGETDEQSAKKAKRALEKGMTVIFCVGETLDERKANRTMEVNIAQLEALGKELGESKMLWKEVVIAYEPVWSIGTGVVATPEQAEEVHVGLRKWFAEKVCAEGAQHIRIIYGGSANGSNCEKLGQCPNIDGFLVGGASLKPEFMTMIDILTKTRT
Experimental: The TPI from G. lamblia was expressed and purified. […] When the culture reached A600 = 0.8, it was induced using 0.4 mM IPTG and incubated overnight at 30 °C with shaking at 180 rpm. After the bacteria were collected by centrifugation (10,000× g, 15 min) and suspended in 40 mL of lysis buffer, pH 8.0 (50 mM Tris, 50 mM NaCl, 5 mM β-mercaptoethanol, and 1 mM phenylmethylsulfonyl fluoride). The bacterial suspension was disrupted by sonication and centrifuged at 9000× g for 1 h at 4 °C. Protein purification was performed by immobilized metal affinity chromatography (IMAC) using a Profinity Ni^2+ charged resin (Bio-Rad) previously reported by Enriquez-Flores et al.. The His-tag sequence was removed from the TIM by incubation with TEVP at a molar ratio of 30:1 (TPI/TEVP) at room temperature for 17 h in digestion buffer, pH 8.0 (50 mM Tris, 0.5 mM ethylene diamine tetraacetic acid (EDTA), and 1 mM dithiothreitol). The enzyme concentration was spectrophotometrically determined at 280 nm, and the enzyme was used immediately.
Enzyme activity of TPI was determined spectrophotometrically as described by monitoring the conversion of glyceraldehyde-3-phosphate (GAP) to dihydroxyacetone phosphate (DHAP). […] The standard reaction mixture contained 1 mM GAP, 0.2 mM NADH, and 0.9 units/mL of α-GDH in TE buffer (100 mM triethanolamine, 10 mM EDTA, pH 7.4). The reaction was initiated by adding 5 ng/mL of TPI to the reaction mixture.
To determine the inactivation of the TPI enzyme from G. lamblia, we performed inactivation assays of the enzyme in the presence of the synthesized compounds. The compounds’ stock solutions were freshly prepared using 100% dimethyl sulfoxide (DMSO) as the solvent at 25 mM. […] After the incubation period, the enzymatic activity was measured by withdrawing an aliquot of each experimental condition, as described above. The results were expressed in terms of the percentage of activity versus the compound’s concentration.

[3] = 500 µM (highest concentration tested)

Structure (SMILES) | CC50 at 48 h (in vitro) [µM] | selectivity ratio at 48 h (in vitro) | Cell viability decrease, Caco-2 (Caco-2 cells; [3]) | CC50 at 48 h [1] [µM] | Cell viability decrease, HT29 (HT29 cells; [3]) | Selectivity index (SI), CC50 HT29 / IC50 trophozoites (HT29 cells) | IC50 [2] [µM] | Loss (reduction) of TPI enzyme activity [2] [%] | viability at 48 h, 500 µM (in vitro) [%] | Cell viability decrease, Caco-2 (Caco-2 cells; 150 µM) | viability at 48 h, 500 µM [1] [%] | Cell viability decrease, HT29 (HT29 cells; 150 µM) | Enhancement of TPI inactivation (IC50) with respect to BHO2 [2] [fold] | CC50 (Caco-2 cells; XTT, 48 h) [µM] | CC50 (HT29 cells; XTT, 48 h) [µM]
COc1c(C)cnc(C[S+]([O-])c2nc3ccccc3[nH]2)c1C (centres unmarked) [H-BZM2, 2-[(4-methoxy-3,5-dimethylpyridin-2-yl)methanesulfinyl]-1H-benzimidazole] | 3180 | 88 | approximately 20% | 1910 | approximately 20% | 53 | 37 | 100 |  |  |  |  |  |  | 
O=[N+]([O-])c1ccc2nc([S+]([O-])Cc3ccccn3)[nH]c2c1 (centres unmarked) [O2N-BZM7, 5-nitro-2-[(pyridin-2-yl)methanesulfinyl]-1H-benzimidazole] | 640 | 45 |  | 519 |  | 37 | 12 | 100 | ~50 | around 20% | ~50 | around 20% | 5.3 |  | 
Cc1c(OCC(F)(F)F)ccnc1C[S+]([O-])c1nc2ccccc2[nH]1 (centres unmarked) [Lansoprazole, 2-{[3-methyl-4-(2,2,2-trifluoroethoxy)pyridin-2-yl]methanesulfinyl}-1H-benzimidazole, reference compound] |  | 59 | approximately 20% |  | approximately 20% | 12 | 66 | 100 |  |  |  |  |  | 2640 | 548
Cc1c(OCC(F)(F)F)ccnc1C[S+]([O-])c1nc2ccc([N+](=O)[O-])cc2[nH]1 (centres unmarked) [O2N-BZM9, 2-{[3-methyl-4-(2,2,2-trifluoroethoxy)pyridin-2-yl]methanesulfinyl}-5-nitro-1H-benzimidazole] | 663 | 39 |  | 622 |  | 36 | 20 | 100 | ~50 | around 20% | ~50 | around 20% | 3.2 |  | 
